Experimental data: patent publication US6747045B2, “(Benzodioxan, benzofuran or benzopyran) derivatives having fundic relaxation properties” (Janssen Pharmaceutica N.V., priority 1997, dated 2004)
pEC50: −log10 of the molar value.

Legend:
basilar arteries = test: Vasoconstrictive activity on basilar artery; parameters: species or system pigs; settings: Sus scrofa; pig basilar artery segments, organ bath; response relative to serotonin 3×10^−7 M; estimated from three preparations; read-out: ED50-value (concentration causing 50% of the constrictive response obtained with serotonin)
Method: C.2 Vasoconstrictive Activity on Basilar Artery
Segments of basilar arteries taken from pigs (anaesthetised with sodium pentobarbital) were mounted for recording of isometric tension in organ baths. The preparations were bathed in Krebs-Henseleit solution. The solution was kept at 37° C. and gassed with a mixture of 95% O2-5% CO2. The preparations were stretched until a stable basal tensions of 2 grams was obtained.
The preparations were made to constrict with serotonin (3×10^−7 M). The response to the addition of serotonin was measured and subsequently the serotonin was washed away. This procedure was repeated until stable responses were obtained. Subsequently the test compound was administered to the organ bath and the constriction of the preparation was measured. This constrictive response was expressed as a percentage of the response to serotonin as measured previously.

fundus of the stomach = test: Gastric tone measured by an electronic barostat in conscious dogs; type: in vivo; settings: conscious female beagle dogs; 0.63 mg/kg s.c.; 1 hour after administration of the test compound
Method: C.1. Gastric Tone Measured by an Electronic Barostat in Conscious Dogs
Gastric tone cannot be measured by manometric methods. Therefore an electronic barostat was used. This allows the study of the physiological pattern and regulation of gastric tone in conscious dogs and the influence of test-compounds on this tone.
The barostat consists of an air injection system which is connected by a double-lumen 14-French polyvinyl tube to an ultrathin flaccid polyethylene bag (maximal volume: ±700 ml). Variations in gastric tone were measured by recording changes in the volume of air within an intragastric bag, maintained at a constant pressure, or at varying pressure levels. The barostat maintains a constant pressure (preselected) within a flaccid air-filled bag introduced into the stomach, changing the volume of air within the bag by an electronic feedback system.
Thus, the barostat measures gastric motor activity (contraction or relaxation) as changes in intragastric volume (decrease or increase resp.) at a constant intragastric pressure. The barostat consists of a strain gauge linked by an electronic relay to an air injection-aspiration system. Both the strain gauge and the injection system are connected by means of double-lumen polyvinyl tube to an ultrathin polyethylene bag. A dial in the barostat allows selection of the pressure level to be maintained within the intragastric bag.
Female beagle dogs, weighing 7-17 kg, were trained to stand quietly in Pavlov frames. They were implanted with a gastric cannula under general anaesthesia and aseptic precautions. After a median laparotomy, an incision was made through the gastric wall in longitudinal direction between the greater and the lesser curve, 2 cm above the nerves of Latarjet. The cannula was secured to the gastric wall by means of a double purse string suture and brought out via a stub wound at the left quadrant of the hypochondrium. Dogs were allowed a recovery period of two weeks.
At the beginning of the experiment, the cannula was opened in order to remove any gastric juice or food remnants. If necessary, the stomach was cleansed with 40 to 50 ml lukewarm water. The ultrathin bag of the barostat was positioned into the fundus of the stomach through the gastric cannula. In order to ensure easy unfolding of the intragastric bag during the experiment, a volume of 150-200 ml was injected into the bag by raising the pressure to maximally 14 mm Hg (about 1.87 kPa) very briefly. This procedure was repeated twice. A stabilisation period of 1 hour was allowed. […]

Molecule: O=C(O)C(=O)O.O=C1NCCCN1CCCNCC1CCc2ccccc2O1 (racemic) [Compound 1, (±)-1-[3-[[(3,4-dihydro-2H-1-benzopyran-2-yl)methyl]amino]-propyl]-tetrahydro-2(1H)-pyrimidinone ethanedioate(1:1)]
- pEC50 (basilar arteries): < 6.00
- melting point: 226.3 °C
- % effect (percentual effect on relaxation of the fundus) (fundus of the stomach): 23.0%

Molecule: O=C1NCCCN1CCCN(Cc1ccccc1)CC1CCc2ccccc2O1 (racemic) [Compound 13, (±)-1-[3-[[(3,4-dihydro-2H-1-benzopyran-2-yl)methyl](phenylmethyl)amino]propyl]-tetrahydro-2(1H)-pyrimidinone]
- pEC50 (basilar arteries): < 6.00
- melting point: 94.7 °C
- % effect (percentual effect on relaxation of the fundus) (fundus of the stomach): 0.4%

Molecule: O=C(O)C(=O)O.S=C1NCCCN1CCCNCC1CCc2ccccc2O1 (racemic) [Compound 14, (±)-1-[3-[[(3,4-dihydro-2H-1-benzopyran-2-yl)-methyl]amino]propyl]tetrahydro-2(1H)-pyrimidinethione ethanedioate(1:1)]
- pEC50 (basilar arteries): < 6.00
- melting point: 217.6 °C

Molecule: N#CN=C1NCCCN1CCCNCC1CCc2ccccc2O1 (racemic) [Compound 21, (±)-[1-[3-[[(3,4-dihydro-2H-1-benzopyran-2-yl)-methyl]-amino]propyl]hexahydro-2-pyrimidinylidene]cyanamide ethanedioate (1:1)]
- pEC50 (basilar arteries): 6.23
- melting point: 177.5 °C

Molecule: NC(=O)Nc1nccn1C1CCN(CC2CCc3ccccc3O2)CC1 (racemic) [Compound 66, (±)-[1-[1-[(3,4-dihydro-2H-1-benzopyran-2-yl)methyl]-4-piperidinyl]-1H-imidazol-2-yl]urea]
- pEC50 (basilar arteries): < 6.00

Molecule: O=C(O)C(=O)O.O=C1NCCCN1CCCNC[C@H]1CCc2ccccc2O1 [Compound 3, (R)-1-[3-[[(3,4-dihydro-2H-1-benzopyran-2-yl)methyl]amino]propyl]-tetrahydro-2(1H)-pyrimidinone ethanedioate (1:1)]
- pEC50 (basilar arteries): < 6.00
- % effect (percentual effect on relaxation of the fundus) (fundus of the stomach): 36.2%

Molecule: N#CNc1nccn1C1CCN(CC2CCc3ccccc3O2)CC1 (stereo not drawn) [Compound 59, [1-[1-[(3,4-dihydro-2H-1-benzopyran-2-yl)methyl]-4-piperidinyl]1H-imidazol-2-yl]cyanamide]
- pEC50 (basilar arteries): < 6.00

Molecule: (RR,SS)-1-[1-[2-(3,4-dihydro-2H-1-benzopyran-2-yl)-2-hydroxyethyl]-4-piperidinyl]-2-imidazolidinone [Compound 20]
- % effect (percentual effect on relaxation of the fundus) (fundus of the stomach): 9.5%
